Source: US12281149B2, “Modulators of G-protein coupled receptors” (priority 2021, dated 2025)
*1 amine or outer side, *2 acyl side, *3 side chain or, on linkers, in order; H or OH if unused. Where a SMILES comes first, the peptide text is derived from it. Side-chain parts run from the residue outwards. [ ]: non-standard residue; d: D form. The star is where a group is joined. Isobutyryl(2-(3-CN-5-F-Ph)) = CC(C)(C(=O)*)c1cc(F)cc(C#N)c1; C20 diacid = O=C(O)CCCCCCCCCCCCCCCCCCC(=O)*; αMePhe(2-F) = C[C@](N)(Cc1ccccc1F)C(=O)O; γGlu = O=C(O)[C@H](CCC(=O)[*:2])N[*:1]; 2Thenoyl(5-Cl) = O=C(c1ccc(Cl)s1)*; X40 = CC(C)(C(=O)*)n1cc(Cl)cn1; X60 = O=C(C1(c2cccnc2)CCCC1)*; X24 = O=C(C1(c2cccnc2)CCC1)*; Ac4c = NC1(C(=O)O)CCC1; AEEA = NCCOCCOCC(=O)O; Aib = CC(C)(N)C(=O)O; GABA = NCCCC(=O)O; βAla = NCCC(=O)O

Key:
GLP-1 receptor = GLP-1 receptor (Homo sapiens, UniProt P43220); experiment: HitHunter cAMP assay, GLP-1 receptor; assay type: cell-based; conditions: CHO cells, cAMP; normalized to maximum signal from GLP-1 (high) and DMSO (low); read-out: Emax GLP-1R
Sequence of GLP-1 receptor (P43220 24-463): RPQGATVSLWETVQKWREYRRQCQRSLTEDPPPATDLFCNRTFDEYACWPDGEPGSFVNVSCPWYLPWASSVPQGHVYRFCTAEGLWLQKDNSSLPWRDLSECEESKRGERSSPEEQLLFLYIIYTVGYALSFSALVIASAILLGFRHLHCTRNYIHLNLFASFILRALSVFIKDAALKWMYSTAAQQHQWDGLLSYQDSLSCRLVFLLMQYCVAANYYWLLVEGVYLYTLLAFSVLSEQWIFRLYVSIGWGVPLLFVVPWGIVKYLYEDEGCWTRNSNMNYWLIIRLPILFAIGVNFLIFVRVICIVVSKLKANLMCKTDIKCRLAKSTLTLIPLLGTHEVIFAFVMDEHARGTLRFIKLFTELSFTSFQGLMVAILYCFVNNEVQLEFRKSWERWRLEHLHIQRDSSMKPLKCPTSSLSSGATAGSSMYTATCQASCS

GIP receptor = target: T1, GIP receptor (Homo sapiens, UniProt P48546); experiment: HitHunter cAMP assay, GIP receptor; assay type: cell-based; conditions: CHO cells, cAMP; normalized to maximum signal from GIP (high) and DMSO (low); read-out: Emax GIP-1R
T1 sequence (P48546 22-466): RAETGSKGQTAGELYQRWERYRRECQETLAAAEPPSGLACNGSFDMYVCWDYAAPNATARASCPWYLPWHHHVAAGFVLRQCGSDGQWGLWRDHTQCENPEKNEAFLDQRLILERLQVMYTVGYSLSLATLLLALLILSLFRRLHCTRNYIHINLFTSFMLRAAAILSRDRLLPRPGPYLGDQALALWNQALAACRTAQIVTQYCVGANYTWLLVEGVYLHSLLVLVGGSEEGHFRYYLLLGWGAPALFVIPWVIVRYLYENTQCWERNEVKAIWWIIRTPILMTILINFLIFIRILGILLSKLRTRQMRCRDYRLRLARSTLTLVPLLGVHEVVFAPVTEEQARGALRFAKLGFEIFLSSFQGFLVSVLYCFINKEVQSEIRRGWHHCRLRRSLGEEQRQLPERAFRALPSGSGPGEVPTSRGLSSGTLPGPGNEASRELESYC

Row | Structure (SMILES) | Emax (GLP-1 receptor) [%] | Emax (GIP receptor) [%]
1 | CC[C@H](C)[C@H](NC(=O)[C@H](CC(C)C)NC(=O)[C@H](Cc1c[nH]c2ccccc12)NC(=O)[C@H](CCC(N)=O)NC(=O)[C@@H](NC(=O)[C@H](Cc1ccccc1)NC(=O)[C@H](C)NC(=O)[C@H](CCCCNC(=O)COCCOCCNC(=O)COCCOCCNC(=O)CC[C@H](NC(=O)CCCCCCCCCCCCCCCCCCC(=O)O)C(=O)O)NC(=O)[C@H](CCC(N)=O)NC(=O)[C@H](C)NC(=O)[C@@H](NC(=O)[C@H](CCCCN)NC(=O)[C@H](CC(=O)O)NC(=O)[C@H](CC(C)C)NC(=O)C(C)(C)NC(=O)[C@@H](NC(=O)[C@H](CO)NC(=O)[C@H](Cc1ccc(O)cc1)NC(=O)[C@H](CC(=O)O)NC(=O)[C@H](CO)NC(=O)[C@@H](NC(=O)[C@H](Cc1ccccc1)NC(=O)[C@@H](NC(=O)CNC(=O)[C@H](CCC(=O)O)NC(=O)CCCNC(=O)C(C)(C)n1cc(Cl)cn1)[C@@H](C)O)[C@@H](C)O)[C@@H](C)CC)[C@@H](C)CC)C(C)C)C(=O)N[C@@H](C)C(=O)NCC(=O)NCC(=O)N1CCC[C@H]1C(=O)N[C@@H](CO)C(=O)N[C@@H](CO)C(=O)NCC(=O)N[C@@H](C)C(=O)N1CCC[C@H]1C(=O)N1CCC[C@H]1C(=O)N1CCC[C@H]1C(=O)N[C@@H](CO)C(N)=O [Compound 248] ({X40-GABA}-EGTFTSDYSI[Aib]LDKIAQK([AEEA-AEEA-γGlu-C20 diacid])AFVQWLIAGGPSSGAPPPS-NH2; C-terminus assumed) | 90 | 104
2 | CC[C@H](C)[C@H](NC(=O)[C@H](CC(C)C)NC(=O)[C@H](Cc1c[nH]c2ccccc12)NC(=O)[C@H](CCC(N)=O)NC(=O)[C@@H](NC(=O)[C@H](Cc1ccccc1)NC(=O)[C@H](C)NC(=O)[C@H](CCCCNC(=O)COCCOCCNC(=O)COCCOCCNC(=O)CC[C@H](NC(=O)CCCCCCCCCCCCCCCCCCC(=O)O)C(=O)O)NC(=O)[C@H](CCC(N)=O)NC(=O)[C@H](C)NC(=O)[C@@H](NC(=O)[C@H](CCCCN)NC(=O)[C@H](CC(=O)O)NC(=O)[C@H](CC(C)C)NC(=O)C(C)(C)NC(=O)[C@@H](NC(=O)[C@H](CO)NC(=O)[C@H](Cc1ccc(O)cc1)NC(=O)[C@H](CC(=O)O)NC(=O)[C@H](CO)NC(=O)[C@@H](NC(=O)[C@H](Cc1ccccc1)NC(=O)[C@@H](NC(=O)CNC(=O)[C@H](CCC(=O)O)NC(=O)CCNC(=O)C1(c2cccnc2)CCC1)[C@@H](C)O)[C@@H](C)O)[C@@H](C)CC)[C@@H](C)CC)C(C)C)C(=O)N[C@@H](C)C(=O)NCC(=O)NCC(=O)N1CCC[C@H]1C(=O)N[C@@H](CO)C(=O)N[C@@H](CO)C(=O)NCC(=O)N[C@@H](C)C(=O)N1CCC[C@H]1C(=O)N1CCC[C@H]1C(=O)N1CCC[C@H]1C(=O)N[C@@H](CO)C(N)=O [Compound 255] ({X24-βAla}-EGTFTSDYSI[Aib]LDKIAQK([AEEA-AEEA-γGlu-C20 diacid])AFVQWLIAGGPSSGAPPPS-NH2; C-terminus assumed) | 90 | 99
3 | CC[C@H](C)[C@H](NC(=O)[C@H](CC(C)C)NC(=O)[C@H](Cc1c[nH]c2ccccc12)NC(=O)[C@H](CCC(N)=O)NC(=O)[C@@H](NC(=O)[C@H](Cc1ccccc1)NC(=O)[C@H](C)NC(=O)[C@H](CCCCNC(=O)COCCOCCNC(=O)COCCOCCNC(=O)CC[C@H](NC(=O)CCCCCCCCCCCCCCCCCCC(=O)O)C(=O)O)NC(=O)[C@H](CCC(N)=O)NC(=O)[C@H](C)NC(=O)[C@@H](NC(=O)[C@H](CCCCN)NC(=O)[C@H](CC(=O)O)NC(=O)[C@H](CC(C)C)NC(=O)C(C)(C)NC(=O)[C@@H](NC(=O)[C@H](CO)NC(=O)[C@H](Cc1ccc(O)cc1)NC(=O)[C@H](CC(=O)O)NC(=O)[C@H](CO)NC(=O)[C@@H](NC(=O)[C@](C)(Cc1ccccc1F)NC(=O)[C@@H](NC(=O)CNC(=O)[C@H](CCC(=O)O)NC(=O)CCNC(=O)C(C)(C)c1cc(F)cc(C#N)c1)[C@@H](C)O)[C@@H](C)O)[C@@H](C)CC)[C@@H](C)CC)C(C)C)C(=O)N[C@@H](C)C(=O)NCC(N)=O [Compound 228] ({Isobutyryl(2-(3-CN-5-F-Ph))-βAla}-EGT[αMePhe(2-F)]TSDYSI[Aib]LDKIAQK([AEEA-AEEA-γGlu-C20 diacid])AFVQWLIAG-NH2; N-terminus and C-terminus assumed) | 100 | 105
4 | CC[C@H](C)[C@H](NC(=O)[C@H](CC(C)C)NC(=O)[C@H](Cc1c[nH]c2ccccc12)NC(=O)[C@H](CCC(N)=O)NC(=O)[C@@H](NC(=O)[C@H](Cc1ccccc1)NC(=O)[C@H](C)NC(=O)[C@H](CCCCNC(=O)COCCOCCNC(=O)COCCOCCNC(=O)CC[C@H](NC(=O)CCCCCCCCCCCCCCCCCCC(=O)O)C(=O)O)NC(=O)[C@H](CCC(N)=O)NC(=O)[C@H](C)NC(=O)[C@@H](NC(=O)[C@H](CCCCN)NC(=O)[C@H](CC(=O)O)NC(=O)[C@H](CC(C)C)NC(=O)C(C)(C)NC(=O)[C@@H](NC(=O)[C@H](CO)NC(=O)[C@H](Cc1ccc(O)cc1)NC(=O)[C@H](CC(=O)O)NC(=O)[C@H](CO)NC(=O)[C@@H](NC(=O)[C@H](Cc1ccccc1)NC(=O)[C@@H](NC(=O)CNC(=O)[C@H](CCC(=O)O)NC(=O)CCNC(=O)C1(c2cccnc2)CCCC1)[C@@H](C)O)[C@@H](C)O)[C@@H](C)CC)[C@@H](C)CC)C(C)C)C(=O)N[C@@H](C)C(=O)NCC(=O)NCC(=O)N1CCC[C@H]1C(=O)N[C@@H](CO)C(=O)N[C@@H](CO)C(=O)NCC(=O)N[C@@H](C)C(=O)N1CCC[C@H]1C(=O)N1CCC[C@H]1C(=O)N1CCC[C@H]1C(=O)N[C@@H](CO)C(N)=O [Compound 256] ({X60-βAla}-EGTFTSDYSI[Aib]LDKIAQK([AEEA-AEEA-γGlu-C20 diacid])AFVQWLIAGGPSSGAPPPS-NH2; C-terminus assumed) | 98 | 104
5 | CC[C@H](C)[C@H](NC(=O)[C@H](CC(C)C)NC(=O)[C@H](Cc1c[nH]c2ccccc12)NC(=O)[C@H](CCC(N)=O)NC(=O)[C@@H](NC(=O)[C@H](Cc1ccccc1)NC(=O)[C@H](C)NC(=O)[C@H](CCCCNC(=O)COCCOCCNC(=O)COCCOCCNC(=O)CC[C@H](NC(=O)CCCCCCCCCCCCCCCCCCC(=O)O)C(=O)O)NC(=O)[C@H](CCC(N)=O)NC(=O)[C@H](C)NC(=O)[C@@H](NC(=O)[C@H](CCCCN)NC(=O)[C@H](CC(=O)O)NC(=O)[C@H](CC(C)C)NC(=O)C(C)(C)NC(=O)[C@@H](NC(=O)[C@H](CO)NC(=O)[C@H](Cc1ccc(O)cc1)NC(=O)[C@H](CC(=O)O)NC(=O)[C@H](CO)NC(=O)[C@@H](NC(=O)[C@H](Cc1ccccc1)NC(=O)[C@@H](NC(=O)CNC(=O)[C@H](CCC(=O)O)NC(=O)CCNC(=O)C(C)(C)c1cc(F)cc(C#N)c1)[C@@H](C)O)[C@@H](C)O)[C@@H](C)CC)[C@@H](C)CC)C(C)C)C(=O)N[C@@H](C)C(=O)NCC(N)=O [Compound 229] ({Isobutyryl(2-(3-CN-5-F-Ph))-βAla}-EGTFTSDYSI[Aib]LDKIAQK([AEEA-AEEA-γGlu-C20 diacid])AFVQWLIAG-NH2; N-terminus and C-terminus assumed) | 102 | 107
6 | CC[C@H](C)[C@H](NC(=O)[C@H](CC(C)C)NC(=O)[C@H](Cc1c[nH]c2ccccc12)NC(=O)[C@H](CCC(N)=O)NC(=O)[C@@H](NC(=O)[C@H](Cc1ccccc1)NC(=O)[C@H](C)NC(=O)[C@H](CCCCNC(=O)COCCOCCNC(=O)COCCOCCNC(=O)CC[C@H](NC(=O)CCCCCCCCCCCCCCCCCCC(=O)O)C(=O)O)NC(=O)[C@H](CCC(N)=O)NC(=O)[C@H](C)NC(=O)[C@@H](NC(=O)[C@H](CCCCN)NC(=O)[C@H](CC(=O)O)NC(=O)[C@H](CC(C)C)NC(=O)C(C)(C)NC(=O)[C@@H](NC(=O)[C@H](CO)NC(=O)[C@H](Cc1ccc(O)cc1)NC(=O)[C@H](CC(=O)O)NC(=O)[C@H](CO)NC(=O)[C@@H](NC(=O)[C@H](Cc1ccccc1)NC(=O)[C@@H](NC(=O)CNC(=O)[C@H](CCC(=O)O)NC(=O)CCCNC(=O)C1(NC(=O)c2ccc(Cl)s2)CCC1)[C@@H](C)O)[C@@H](C)O)[C@@H](C)CC)[C@@H](C)CC)C(C)C)C(=O)N[C@@H](C)C(=O)NCC(=O)NCC(=O)N1CCC[C@H]1C(=O)N[C@@H](CO)C(=O)N[C@@H](CO)C(=O)NCC(=O)N[C@@H](C)C(=O)N1CCC[C@H]1C(=O)N1CCC[C@H]1C(=O)N1CCC[C@H]1C(=O)N[C@@H](CO)C(N)=O [Compound 244] ({2Thenoyl(5-Cl)}-[Ac4c][GABA]EGTFTSDYSI[Aib]LDKIAQK([AEEA-AEEA-γGlu-C20 diacid])AFVQWLIAGGPSSGAPPPS-NH2; C-terminus assumed) | 109 | 120
